From patent US20260174875A1 (Novo Nordisk A/S, priority 2023, published 2026)
pEC50: −log10 of the molar value. Read-outs that look alike come from different tables or passages of the source. Numbered stars: 1 amine (or outer) side, 2 acyl side, 3 side chain; on linkers, the order of the positions; unused ones are H or OH. Square brackets hold non-standard residues; d marks the D form. Side chains are listed from the residue outwards. * marks the point of attachment. C20 diacid = O=C(O)CCCCCCCCCCCCCCCCCCC(=O)*; C18 diacid = O=C(O)CCCCCCCCCCCCCCCCC(=O)*; C16 diacid = O=C(O)CCCCCCCCCCCCCCC(=O)*; γGlu = O=C(O)[C@H](CCC(=O)[*:2])N[*:1]; AEEA = NCCOCCOCC(=O)O; Aib = CC(C)(N)C(=O)O

Experiments:
[1] = Chemical stability assessment in formulation (UPLC-UV-MS purity loss at 37° C.); assay type: physicochemical; settings: 8 mM phosphate buffer pH 7.4, 1 mg/mL, 2 weeks
How it was run: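 Peptides at target 1 mg/mL in 8 mM phosphate buffer, pH adjusted to 7.4, incubated in capped vials at 37° C. and sampled over 2 weeks, frozen until analysis. Purity followed by UPLC-UV-MS with a 0.1% formic acid water/acetonitrile gradient.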

[2] = target: T1, human GIP receptor (hGIPR) (Homo sapiens, UniProt P48546); test: GIP receptor assay, method B (CRE-luciferase reporter, BHK cells, 384-well); assay type: cell-based
T1 construct: expressed in transfected cells
T1 sequence (P48546 22-466): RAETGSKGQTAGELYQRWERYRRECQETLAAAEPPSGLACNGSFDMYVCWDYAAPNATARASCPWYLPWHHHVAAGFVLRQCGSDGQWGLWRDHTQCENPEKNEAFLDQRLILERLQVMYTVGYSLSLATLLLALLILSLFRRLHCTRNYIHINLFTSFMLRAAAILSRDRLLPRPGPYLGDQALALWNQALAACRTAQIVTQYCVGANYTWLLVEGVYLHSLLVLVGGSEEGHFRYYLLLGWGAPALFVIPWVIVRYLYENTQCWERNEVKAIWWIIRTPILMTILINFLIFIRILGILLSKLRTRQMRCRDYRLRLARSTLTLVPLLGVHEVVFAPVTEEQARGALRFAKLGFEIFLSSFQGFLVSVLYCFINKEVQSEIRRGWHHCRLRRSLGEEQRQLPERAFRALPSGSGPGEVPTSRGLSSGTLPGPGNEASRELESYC
Method: To assess how the activation of the receptors is potentially influenced by the presence of human serum albumin (HSA), the in vitro assays were performed in the absence of HSA and presence of 1% (w/v) HSA.
Activation of the human GIP receptor leads to increased intra-cellular concentrations of cyclic AMP (cAMP) and the consequent transcription activation from promoters containing multiple copies of the cAMP response element (CRE). It is thus possible to measure GIP receptor activity using a CRE-luciferase reporter gene introduced into Baby Hamster Kidney (BHK) cells co-expressing the human GIP receptor.
Cells at about 80-90% confluency were washed once with PBS (Gibco 14190-094) and detached from the cell flasks with Versene (Gibco, 15040-066). After centrifugation, the cells were counted, resuspended and diluted to approximately 1.5-3.0×10^6 (1.5E+6 to 3.0E+6) cells/mL in Recovery Cell Culture Freezing Medium (Gibco, 12648-010) and stored at −180° C. in suitable aliquots until use.
The assay buffer consisted of DMEM without phenol red (Gibco, 11880-028) supplemented with 1× GlutaMAX (Gibco, 35050-038), 10 mM HEPES (Gibco, 15630-056), 1% (w/v) ovalbumin (Sigma, A5503) and 0.1% (v/v) Pluronic F-68 (Gibco, 24040-032) either with HSA or without HSA (Sigma, A9511).
Serial dilutions were transferred to a 384-well assay plate (PerkinElmer/Revvity, 6007688) and mixed with an equal volume (10 μL) of assay buffer without or with 3% HSA (Sigma, A-9511). Frozen stocks of hGIPR BHK Cre-Luc cells were thawed in a 37° C. water bath, washed once in PBS (Gibco 14190-094), diluted to 1.5×10^5 (1.5E+5) cells/mL in assay buffer (without HSA) and added (10 μL) to each well of the 384-well assay plate. After a short centrifugation, the assay plates were incubated for 3 hours at 37° C. in 5% CO2 and let to equilibrated at room temperature for 10 minutes before the addition of 30 μL steadylite Plus™ (PerkinElmer/Revvity, 6066759) per well. Plates were sealed and incubated at room temperature with gentle shaking for 30 minutes while protected from light. Luminescence was detected on a luminescence plate reader e.g. a Synergy 2 (BioTek).

[3] = target: T2, human GLP-1 receptor (hGLP-1R) (Homo sapiens, UniProt P43220); test: GLP-1 receptor assay, method B (CRE-luciferase reporter, BHK cells, 384-well); assay type: cell-based
T2 construct: expressed in transfected cells
T2 sequence (P43220 24-463): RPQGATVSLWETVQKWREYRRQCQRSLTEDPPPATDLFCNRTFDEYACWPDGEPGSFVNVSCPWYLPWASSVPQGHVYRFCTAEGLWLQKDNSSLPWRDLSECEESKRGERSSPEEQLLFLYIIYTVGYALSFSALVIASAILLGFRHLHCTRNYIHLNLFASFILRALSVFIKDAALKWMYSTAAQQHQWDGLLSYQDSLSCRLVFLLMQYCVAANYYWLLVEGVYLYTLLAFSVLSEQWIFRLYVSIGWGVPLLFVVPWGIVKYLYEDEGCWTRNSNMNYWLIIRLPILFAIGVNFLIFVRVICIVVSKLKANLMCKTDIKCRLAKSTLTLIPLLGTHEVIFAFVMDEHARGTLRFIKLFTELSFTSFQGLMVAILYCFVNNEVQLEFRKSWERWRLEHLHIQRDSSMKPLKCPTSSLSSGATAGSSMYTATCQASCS

[4] = target: T3, human amylin receptor (hAMYR3) (Homo sapiens, UniProt O60896+P30988); test: Amylin receptor assay, method B (CRE-luciferase reporter, BHK cells); assay type: cell-based
T3 construct: host or cells: BHK cells (Hollex-1 line expressing hCTR(a) and CRE-Luc), further transfected with human RAMP3
T3 sequence (P30988 25-474): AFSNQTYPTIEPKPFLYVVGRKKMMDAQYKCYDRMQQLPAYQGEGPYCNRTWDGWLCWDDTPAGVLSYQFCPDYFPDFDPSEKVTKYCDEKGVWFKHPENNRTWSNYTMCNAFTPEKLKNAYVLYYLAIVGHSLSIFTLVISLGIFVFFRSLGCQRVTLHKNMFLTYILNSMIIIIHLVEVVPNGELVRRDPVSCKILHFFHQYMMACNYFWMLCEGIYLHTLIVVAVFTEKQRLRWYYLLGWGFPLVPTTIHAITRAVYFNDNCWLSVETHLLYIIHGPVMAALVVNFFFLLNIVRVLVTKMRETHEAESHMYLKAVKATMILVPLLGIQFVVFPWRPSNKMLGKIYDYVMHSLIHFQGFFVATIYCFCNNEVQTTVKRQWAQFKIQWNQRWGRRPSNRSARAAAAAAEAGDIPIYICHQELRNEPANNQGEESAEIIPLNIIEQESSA
T3 sequence (O60896 24-148): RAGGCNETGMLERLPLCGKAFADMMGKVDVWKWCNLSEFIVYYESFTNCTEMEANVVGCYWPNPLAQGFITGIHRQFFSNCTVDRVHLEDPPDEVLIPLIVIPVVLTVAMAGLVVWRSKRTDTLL
How it was run: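 BHK cells with CRE-luciferase, co-expressing hAMYR3 and transfected with human RAMP3, seeded overnight, then exposed 3 h at 37 °C to compound. Buffer: phenol red-free DMEM, 10 mM HEPES, 1% ovalbumin, with 0% or 1% (w/v) HSA. Luminescence read after 30 min with steadylite Plus.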

Row | Substance | Purity loss per week at 37° C. [1] [%] | other results
1 | Y[Aib]EGTFTSDYSILLEEQAAREFIEWLLAGGPSSGAGQAPGQAPGASHLSTAQTQRLSAELHRLK([AEEA-AEEA-γGlu-C18 diacid])TLPRTETGSGSP-NH2 [Compound 56] | 0.6 | –
2 | Y[Aib]EGTFTSDYSILLEEQAAREFIEWLLAGGPSK([AEEA-AEEA-γGlu-C18 diacid])GEASHLSTAQTARLSAELHELATLPRTETGSGSP-NH2 [Compound 35] | 0.3 | –
3 | H[Aib]HGTFTSDYSILLEEQAAREFIEWLLAGGPSSGAGQAPGQAPLASHLSTAQTQRLSAELHK([AEEA-AEEA-γGlu-C18 diacid])LATLPRTETGSGSP-NH2 [Compound 93] | 2.8 | –
4 | Y[Aib]EGTFTSDYSILLEEQAAREFIEWLLAGGPSSGAGQAPGQAPGASHLSTAALGRLSAELHK([AEEA-AEEA-γGlu-C18 diacid])LATLPRTETGSGSP-NH2 [Compound 53] | 0.8 | –
5 | H[Aib]HGTFTSDYSILLEEQAAREFIEWLLAGGPSK([AEEA-AEEA-γGlu-C16 diacid])GEASQLSTAALGRLSAELHRLADLPRTETGSGSP-NH2 [Compound 62] | 3.0 | –
6 | Y[Aib]EGTFTSDYSILLEEQAAREFIEWLLAGGPSSGEASHLSTAQTQRLSAK([AEEA-AEEA-γGlu-C18 diacid])LHRLATLPRTETGSGSP-NH2 [Compound 79] | 1.3 | –
7 | H[Aib]HGTFTSDYSILLEEQAAREFIEWLLAGGPSK([AEEA-AEEA-γGlu-C16 diacid])GEASELSTAALGRLSAELHRLATLPRTETGSGSP-NH2 [Compound 17] | 4.2 | –
8 | H[Aib]HGTFTSDYSILLEEQAAREFIEWLLAGGPSK([AEEA-AEEA-γGlu-C18 diacid])GEASQLSTAALGRLSAELHTLATLPRTETGSGSP-NH2 [Compound 63] | 3.7 | –
9 | H[Aib]HGTFTSDYSILLEEQAAREFIEWLLAGGPSK([AEEA-AEEA-γGlu-C18 diacid])GAPPPSGGGEASELSTAALGRLSAELHELATLPRTETGSGSP-NH2 [Compound 15] | 3.8 | –
10 | H[Aib]HGTFTSDYSILLEEQAAREFIEWLLAGGPSSGAGQAPGQAPGASHLSTAQTQRLSAELHRLK([AEEA-AEEA-γGlu-C18 diacid])TLPRTETGSGSP-NH2 [Compound 91] | 2.8 | –
11 | H[Aib]HGTFTSDYSILLEEQAAREFIEWLLAGGPSK([AEEA-AEEA-γGlu-C16 diacid])GAPPPSGGGEASELSTAALGRLSAELHELATLPRTETGSGSP-NH2 [Compound 12] | 5.6 | –
12 | H[Aib]HGTFTSDYSILLEEQAAREFIEWLLAGGPSSGAGQAPGQAPGASHLSTAQTQRLSAK([AEEA-AEEA-γGlu-C18 diacid])LHRLATLPRTETGSGSP-NH2 [Compound 78] | 3.5 | –
13 | H[Aib]HGTFTSDYSILLEEQAAREFIEWLLAGGPSK([AEEA-AEEA-γGlu-C16 diacid])GAPPPSGGGEASHLSTAQTARLSAELHRLADLPRTETGSGSP-NH2 [Compound 61] | 2.0 | –
14 | Y[Aib]EGTFTSDYSILLEEQAAREFIEWLLAGGPSSGEASHLSTAQTQRLSAELHK([AEEA-AEEA-γGlu-C18 diacid])LATLPRTETGSGSP-NH2 [Compound 50] | 0.7 | –
15 | Y[Aib]EGTFTSDYSILLEEQAAREFIEWLLAGGPSSGEASHLSTAQTQRLSAELHRLK([AEEA-AEEA-γGlu-C18 diacid])TLPRTETGSGSP-NH2 [Compound 80] | 0.8 | –
16 | H[Aib]HGTFTSDYSILLEEQAAREFIEWLLAGGPSK([AEEA-AEEA-γGlu-C18 diacid])GEASQLSTAALGRLSAELHQLATLPRTETGSGSP-NH2 [Compound 64] | 3.3 | –
17 | Y[Aib]EGTFTSDYSILLEEQAAREFIEWLLAGGPSSGAGQAPGQAPGASHLSTAQTQRLSAELHRLATLPK([AEEA-AEEA-γGlu-C18 diacid])TETGSGSP-NH2 [Compound 57] | 0.2 | –
18 | Y[Aib]EGTFTSDYSILLEEQAAREFIEWLLAGGPSSGAGQAPGQAPGASHLSTAQTQRLSAELHK([AEEA-AEEA-γGlu-C20 diacid])LATLPRTETGSGSP-NH2 [Compound 115] | 1.1 | pEC50 ([2]; hGIPR Potency, 1% HSA, EC50, methods B, in the presence of 1% HSA): 10.41; pEC50 ([2]; method B, absence of HSA, read-out: hGIPR Potency, no HSA, EC50): 10.99; pEC50 ([3]; hGLP-1R Potency, 1% HSA, EC50, methods B, in the presence of 1% HSA): 10.03; pEC50 ([3]; method B, absence of HSA, read-out: hGLP-1R Potency, no HSA, EC50): 10.71; pEC50 ([4]; hAMYR3 Potency, 1% HSA, EC50, methods B, in the presence of 1% HSA): 9.26; pEC50 ([4]; method B, absence of HSA, read-out: hAMYR3 Potency, no HSA, EC50): 11.15
